Source: US12560591B2, “Methods of treatment with CD8 T cell-mediated immune therapy” (Providence Health & Services—Oregon, priority 2019, dated 2026)

What was measured:
[1] = test system: Smad2 (ALK5 signaling) in tumor tissue; test: phospho-SMAD2 / CD8a co-immunofluorescence of tumor sections at day 14; type: in vivo, mouse; settings: day 14, one day post-LY treatment, specifically in CD8α^+ cells, FIG. 1C
Procedure: FIGS. 1A-1D are a series of panels showing that the TGFβR1 antagonist LY2157299 enhances chemo-radiation efficacy dependent on CD8α^+ cells in CT26 tumors. FIG. 1A is a treatment schema in the CT26 tumor model. Six to eight week old BALB/c mice were implanted subcutaneously in the left flank with 2×10^5 CT26 tumor cells. Seven days following implant, animals were randomized based on tumor size, and vehicle control or LY2157299 compound were administered by oral gavage twice daily every 12 hours at 150 mg/kg for 7 consecutive days. At day 14, some mice received five consecutive radiation treatments of 5 Gy targeted to tumor tissue along with 25 mg/kg injections of 5-fluorouracil (5FU) chemotherapy administered intraperitoneally on days 14, 16, and 18. LY treatment groups resumed BID oral dosing from days 21-27. Mean tumor growth (i) and survival (ii) were assessed three times per week up to 100 days or death (FIG. 1B). […] Arrows identify pSMAD2^+CD8^+ cells in vehicle mice. […] NS=not significant, *=p<0.05, **=p<0.01, ***=p<0.001.
Immunofluorescence: Human rectal cancer biopsies were fixed in 10% NBF overnight and mouse tumors were fixed in zinc fixative overnight prior to tissue processing and paraffin embedding followed by sectioning cut at 5 microns for immunofluorescent staining. […]
Production of TGFβ by cells within the tumor was evaluated.

[2] = test system: CXCR3^+CD8^+ T cells; test: FACS analysis of CXCR3^+CD8^+ T cells in CT26 tumor bearing mice; type: in vivo, mouse; settings: preclinical modeling, 7 days treatment, FIG. 10E
Procedure: FIGS. 10A-10E show CD8^+ T cell proliferation is suppressed by the tumor microenvironment, but TGF13 inhibition can increase tumor trafficking. […] Ki67^+CD8^+ T cells was determined by FACS analysis of lymph nodes and MC38 tumors of WT and ALK5^ΔCD8 mice (FIG. 10B).
Flow Cytometry: For ex vivo cytokine analysis, cells were first treated with a 1× cell activation cocktail of PMA/ionomycin/Brefeldin A (Biolegend) for 5 hours in complete RPMI media. One million cells from single cell suspensions were stained with anti-CD16/CD32 Fc block (1:200, BD Biosciences) and fixable viability 700 dye (1:10,000, BD Biosciences) in 1×PBS for 15 min. at 37° C. prior to surface and intracellular staining with primary antibodies. Surface staining commenced in 200 μl FACS buffer supplemented with a 1:4 dilution of Brilliant Violet stain buffer (BD Biosciences) and fluorescently conjugated antibodies (Table 1) for 30 min at 4° C. in the dark; all are mouse reactive antibodies unless otherwise indicated. Following surface staining cells were washed and fixed in either 2% PFA or Fix/Perm buffer (eBioscience) for 20 min at 4° C. for intracellular stain. Fix/perm buffer was washed with 1× perm wash buffer (eBioscience) and intracellular proteins were stained with fluorescently conjugated ICS antibodies in perm wash buffer for 30 min. at 4° C. in the dark. […]

[3] = biological target: T1, ALK4 (Homo sapiens, UniProt P36896); settings: reported in Lahn et al., Drug Des. Devel. Ther. 2015; cited from earlier work
T1 sequence (P36896 24-505): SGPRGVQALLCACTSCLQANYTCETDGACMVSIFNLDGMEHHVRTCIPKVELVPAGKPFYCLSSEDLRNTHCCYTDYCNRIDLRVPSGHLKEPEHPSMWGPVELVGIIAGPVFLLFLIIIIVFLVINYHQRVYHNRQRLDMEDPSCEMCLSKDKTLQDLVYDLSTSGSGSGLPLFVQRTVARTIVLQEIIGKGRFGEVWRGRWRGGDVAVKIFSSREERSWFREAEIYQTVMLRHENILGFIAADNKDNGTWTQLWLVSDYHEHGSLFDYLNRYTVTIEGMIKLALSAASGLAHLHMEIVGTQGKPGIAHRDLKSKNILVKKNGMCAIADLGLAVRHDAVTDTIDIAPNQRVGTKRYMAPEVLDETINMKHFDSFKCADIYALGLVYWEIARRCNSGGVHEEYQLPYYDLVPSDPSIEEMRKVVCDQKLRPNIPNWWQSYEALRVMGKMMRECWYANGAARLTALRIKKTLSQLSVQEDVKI

## Cc1cccc(-c2nn3c(c2-c2ccnc4ccc(C(N)=O)cc24)CCC3)n1 [LY2157299]
[1]
  phosphorylation and nuclear translocation of Smad2 in tumor sections: reduced phosphorylation and nuclear translocation
[2]
  CXCR3^+CD8^+ T cells following treatment: increase in CXCR3^+CD8^+ T cells
[3]
  Kd for ALK4 compared with ALK5: lower Kd for ALK4 than ALK5
